Where two headings read alike, the source gives them in different places.
Legend:
HPV-11 = HPV-11 origin replication in HEK 293 cells, qPCR; assay type: cell-based; details: for EC50: HPV-11 origin replication in HEK 293 cells, 48 hr, qPCR
Description: (§1) An origin-containing plasmid was co-transfected with HPV-11 E1 and E2 protein expression vectors into HEK 293 cells. At 4 hr post-transfection, cells were treated with compound dilutions and the cells were incubated for 48 hr. Replication of the virus origin was detected with DpnI and exonuclease III to remove unreplicated input bacterial plasmid DNA. Remaining replicated DNA was quantified by qPCR. Toxicity was determined by trypan blue exclusion.

Hela (HPV-18) = experiment: Antiproliferative activity, neutral red, Hela cervical cancer cells; details: Homo sapiens, 96 h, read-out: Cytotoxic concentration 50% (CC50) Hela (HPV-18)
[1] = Cytotoxicity in 2.2.15 cells by neutral red uptake; details: human
HIV-1LAI = experiment: HIV antiviral assay in MT-2 cells, p24 reduction; details: for Selectivity Index: CC50/EC50, MT-2 cells
in vitro = details: human
[2] = Antiproliferative activity, neutral red, normal human fibroblasts
Caski (HPV-16) = experiment: Antiproliferative activity, neutral red, Caski cervical cancer cells
[3] = African green monkey
Hepatitis B virus = experiment: HBV replication in 2.2.15 cells, HBV DNA blot hybridization
[4] = Toxicity in HEK 293 cells by trypan blue exclusion (HPV-16 example); assay type: cell-based; details: human
Description: as §1, with “HPV-16” for “HPV-11”

[5] = Cytotoxicity in HFF cells in parallel to HSV-1 assay; details: human
[6] = Effect of oral compounds on body weight in Balb-c mice; assay type: in vivo
Description: Compounds were administered at the indicated doses by oral gavage daily for 5 days. Weights measured before and on day 6 after 5 doses.

[7] = Toxicity in HEK 293 cells by trypan blue exclusion (HPV-11 example); assay type: cell-based; details: human
Description: as §1

[8] = system: AD169 strain of human cytomegalovirus; experiment: Antiviral effect in HFF cells infected with human cytomegalovirus (AD169)
[9] = system: BK virus (Gardner strain); experiment: Antiviral effect in HFF cells infected with BK virus (Gardner strain), qPCR
HPV-16 = HPV-16 origin replication in HEK 293 cells, qPCR; assay type: cell-based
Description: as §1, with “HPV-16” for “HPV-11”

HPV-18 = experiment: Antiviral effect in HPV-18 infected primary human keratinocyte rafts, qPCR
[10] = Toxicity in primary human keratinocyte raft cultures by histology
[11] = human
MAD-1 strain of JC virus = experiment: Antiviral effect in JC virus (MAD-1) infected COS7 cells, qPCR
MT-2 cells = experiment: Cytotoxicity in MT-2 cells, flow cytometry cell counts and viability; assay type: cell-based, human
Description: (§2) MT-2 cells were incubated with drug for 72 hrs and harvested. Flow count beads (Beckman Coulter, Miami, Fla.) were added to the cell suspension followed by propidium iodide staining and analysis using flow cytometer and the 50% cytotoxic concentration (CC50) was calculated from the cell counts and viability.

[12] = as above; assay type: cell-based, human; details: human; MT-2 cells, 72 hrs
Description: as §2

[13] = Cytotoxicity in HFF cells in parallel to cytomegalovirus assay; details: human
HIV-192US727 = experiment: Anti-HIV assay in human PBMC, supernatant reverse transcriptase activity
[14] = system: Human peripheral blood monocyte (PBMC); experiment: Viability of PBMC by XTT reduction; details: human PBMC, XTT reduction
2.2.15 cells = experiment: Cytotoxicity in 2.2.15 cells by neutral red uptake; details: 2.2.15 cells, neutral red uptake
[15] = system: Human peripheral blood monocyte (PBMC)
[16] = system: human foreskin fibroblast (HFF) cells
COS7 cells = details: uninfected COS7 cells, […]
[17] = system: human foreskin fibroblast (HFF) cells; experiment: Cytotoxicity in HFF cells in parallel to HSV-1 assay; details: HFF cells, in parallel to HSV-1 assay
[18] = system: human foreskin fibroblast (HFF) cells; experiment: Cytotoxicity in HFF cells in parallel to HSV-2 assay; details: HFF cells
HEK 293 cells = experiment: Toxicity in HEK 293 cells by trypan blue exclusion (HPV-11 example); assay type: cell-based
Description: as §1

[19] = system: human foreskin fibroblast (HFF) cells; details: uninfected HFF cells, […]
[20] = system: Copenhagen strain of vaccinia virus; experiment: microbe, parasite or virus in culture; assay type: cell-based; details: HFF cells infected with vaccinia virus (Copenhagen), 7 days, crystal violet; read-out: EC50
[21] = system: human foreskin fibroblast (HFF) cells; experiment: Cytotoxicity in HFF cells in parallel to cytomegalovirus assay; details: HFF cells, in parallel to cytomegalovirus assay
[22] = HIV-192US727 infected human PBMC, 7 days, supernatant reverse transcriptase activity
[23] = HIV-1 infected MT-2 cells, p24 reduction, four days
[24] = HFF cells infected with human cytomegalovirus (AD169), 14 days, crystal violet
[25] = HFF cells infected with BK virus (Gardner strain), 14 days, qPCR
[26] = COS7 cells infected with JC virus (MAD-1), 7 days, qPCR
[27] = MT-2 cells, 72 hrs, read-out: CC50

CCCCCCCCCCCCCCCCCCOCCOP(=O)(COCCn1cnc2c(=O)[nH]c(N)nc21)OCc1ccccc1 (racemic) [Compound 1, benzyl octadecyloxyethyl 9-(2-phosphonomethoxyethyl)guanine]
EC50 (HPV-11; HEK293): 0.49 µM | Selectivity Index (HPV-11; HPV-11, HEK 293 cells): >204 | CC50 (Hela (HPV-18)): 0.009 µM | CC50 at 7 days [1]: > 100 µM | Selectivity Index (HIV-1LAI): >3600 | EC50 (HIV-1LAI; Human immunodeficiency virus 1, MT2, 96 h): < 0.01 nM | CC50 (in vitro): 0.04 µM | CC50 at 4 days [2]: 15 µM | CC50 (Caski (HPV-16); Homo sapiens, Ca-Ski, 96 h, read-out: Cytotoxic concentration 50% (CC50) Caski (HPV-16)): 0.004 µM | fold more effective in reducing viable cell number in the cervical cancer lines than in normal, non-transformed human fibroblasts (Caski (HPV-16); cervical cancer lines (Caski, Hela) vs HFF): 3,750 fold | CC50 at 7 days [3]: 63.8 µM | EC50 (Hepatitis B virus; Hepatitis B virus, 168 h): 0.44 µM | Selectivity Index (Hepatitis B virus; hepatitis B virus, 2.2.15 cells): >226 | CC50 [4]: > 10 µM | CC50 at 3 days [5]: > 100 µM | body weight Day 6 ([6]; 4 mg/kg/day oral gavage daily for 5 days): 18.42 ± 1.00 (3) | body weight Day 0 ([6]; 4 mg/kg/day oral gavage, before dosing): 18.63 ± 0.728 (3) | CC50 at 48 h [7]: > 100 µM | EC50 ([8]; Human betaherpesvirus 5, AD169, HFF, 336 h): < 0.03 µM | Selectivity Index ([8]; human cytomegalovirus (AD169), HFF cells): >1717 | Selectivity Index ([9]; BK virus (Gardner strain), HFF cells): >102 | EC50 ([9]; Betapolyomavirus hominis, HFF, 336 h): < 0.03 µM | EC50 (HPV-16; HEK293, HPV-16 origin replication in HEK 293 cells, 48 hr, qPCR, read-out: EC50): 0.2 µM | Selectivity Index (HPV-16; HPV-16, HEK 293 cells): >50 | Selectivity Index (HPV-18; HPV-18 keratinocyte rafts): 48 | EC50 (HPV-18; Homo sapiens, Keratinocyte): 0.21 µM | CC50 [10]: 10 µM | CC50 at 14 days [11]: 3.06 µM | EC50 (MAD-1 strain of JC virus; JC polyomavirus, COS-7, 168 h): 0.07 µM | Selectivity Index (MAD-1 strain of JC virus; JC virus (MAD-1), COS7 cells): 911 | CC50 (MT-2 cells; Homo sapiens, MT2, 72 h, read-out: CC50, 50% Cytotoxic concentration MT2 cells T cell leukemia): 0.036 ± 0.04 µM | CC50 at 72 h [12]: 0.036 ± 0.04 µM | CC50 at 14 days [13]: 51.5 µM | Selectivity Index (HIV-192US727; HIV-192US727, human PBMC): >4.0 | EC50 (HIV-192US727; Human immunodeficiency virus 1, PBMC, 168 h): < 0.01 µM

CCCCCCCCCCCCCCCCCCOCCOP(=O)(CO[C@H](C)Cn1cnc2c(N)ncnc21)Oc1ccccc1 (stereo partly drawn) [Compound 92, phenyl octadecyloxyethyl 9-(R)-[(2-phosphonomethoxy)propyl]adenine]
CC50 [14]: 24.1 µM | CC50 (2.2.15 cells): 68 µM | EC50 (Hepatitis B virus; HBV replication in 2.2.15 cells, 7 days treatment, HBV DNA blot hybridization): 7.3 µM | EC50 (HIV-192US727; [22]): < 0.005 µM

CCCCCCCCCCCCCCCCCCOC[C@H](COP(=O)(CO[C@H](CO)Cn1cnc2c(N)ncnc21)OCc1ccccc1)OCc1ccccc1 (stereo partly drawn) [Compound 230, benzyl 1-O-octadecyl-2-O-benzyl-sn-glyceryl 9-(S)-[(3-hydroxypropyl-2-phosphonomethoxy)propyl]adenine]
CC50 [15]: 0.55 µM | CC50 [16]: 97.5 µM | EC50 (HPV-11): 0.56 µM | Selectivity Index (HIV-1LAI): 380 | EC50 (HIV-1LAI; [23]): 50 ± 30 nM | CC50 (COS7 cells): 18.4 µM | CC50 [17]: 82.2 µM | CC50 [18]: 37.1 µM | CC50 (HEK 293 cells): > 10 µM | EC50 [8, 24]: < 0.03 µM | EC50 [9, 25]: 0.06 µM | CC50 [19]: 19.6 µM | EC50 (MAD-1 strain of JC virus; [26]): > 4 µM | CC50 (MT-2 cells; [27]): 19 ± 2.6 µM | EC50 [20]: 0.06 µM | CC50 [21]: 3.72 µM | EC50 (HIV-192US727): < 0.1 µM

CCCCCCCCCCCCCCCCCCOC[C@H](COP(=O)(CO[C@H](CO)Cn1ccc(N)nc1=O)OCc1ccccc1)OCc1ccccc1 (stereo partly drawn) [Compound 231, benzyl 1-O-octadecyl-2-O-benzyl-sn-glyceryl 1-(S)-[3-hydroxy-2-(phosphonomethoxy)propyl]cytosine]
CC50 [16]: > 100 µM | EC50 (HPV-11): 1.56 µM | CC50 [14]: 19 µM | Selectivity Index (HIV-1LAI): 10 | EC50 (HIV-1LAI; [23]): 2200 ± 2100 nM | CC50 (COS7 cells): 62.6 µM | CC50 [17]: 88.3 µM | CC50 [18]: 34.8 µM | CC50 (HEK 293 cells): > 10 µM | EC50 [8, 24]: < 0.03 µM | EC50 [9, 25]: < 0.03 µM | CC50 [19]: 13.3 µM | EC50 (MAD-1 strain of JC virus; [26]): > 20 µM | CC50 (MT-2 cells; [27]): 22 ± 3 µM | EC50 [20]: 0.23 µM | CC50 [21]: 19 µM | EC50 (HIV-192US727; [22]): < 0.3 µM

From patent US10076533B2, “Acyclic nucleoside phosphonate diesters” (The Regents of the University of California, priority 2013, dated 2018)
